Assay results from patent US5385893A, “Tricyclopolyazamacrocyclophosphonic acids, complexes and derivatives thereof, for use as contrast agents” (The Dow Chemical Company, priority 1993, dated 1995).

What was measured:
[1] = Biolocalization of complexes having an overall charge of +1 (bone uptake); assay type: in vivo; settings: complex having an overall charge of +1
[2] = Complexation: percent samarium metal as a complex (Sephadex column); assay type: physicochemical
Description: Metal ligand complexes were prepared by various methods. The methods included mixing of the metal and ligand in aqueous solution and adjusting the pH to the desired value. Complexation was done in solutions containing salts and/or buffers as well as water.
For example, a solution of the ligand is prepared by dissolving the ligand in deionized water (about pH=2). A ligand/metal complex was then prepared by combining the ligand solution with aqueous SmCl3.H2 O (3×^-4 M in 0.01N HCl) containing tracer ^153 SmCl3. After thorough mixing, the percent metal as a complex was determined by passing a sample of the complex solution through a Sephadex™ column, eluting with 4:1 saline (0.85% NaCl/NH4 OH), and collecting 2×3 mL fractions. The amount of radioactivity in the combined elutions was then compared with that left on the resin. Under these conditions, complex was removed with the eluent and non-complexed metal is retained on the resin. By this method complexation was determined to usually be about 95% or greater.
Using the above procedure, the complexes of samarium with […]

[3] = breakdown of the blood/brain barrier allows perfusion; cited from earlier work
[4] = in vivo; cited from earlier work
[5] = Prohance versus Magnevist; cited from earlier work
[6] = Biodistribution of 153Sm complexes in rats (% injected dose per organ, NaI scintillation counting after tail vein injection); assay type: in vivo, Sprague Dawley rats; settings: 2 hours post injection; for Biodistribution: Brain / Biodistribution: Heart / Biodistribution: Kidney / Biodistribution: Large Intestine / Biodistribution: Liver / Biodistribution: Lung / Biodistribution: Small Intestine / Biodistribution: Spleen / Biodistribution: Stomach / Biodistribution: Blood / Biodistribution: Bone / Biodistribution: Muscle: i.v. tail vein; for Biodistribution: Blood: blood assumed 6.5% of body weight; for Biodistribution: Bone: femur x 25; for Biodistribution: Muscle: muscle assumed 43% of body weight; for Ratio Bone/Blood / Ratio Bone/Liver / Ratio Bone/Muscle / Ratio Bone/Spleen: ratio of average % injected dose
Description: A stock ^159 GdCl3 (or ^153 SMCl3) solution was prepared by adding 2 μL of 3×10^-4 M ^159 GdCl3 in 0.1N HCl to 2 mL of a 3×10^-4 M GdCl3 carrier solution. Appropriate ligand solutions were then prepared in deionized water. The 1:1 ligand/metal complexes were then prepared by combining the ligands (dissolved in 100-500 μL of deionized water) with 2 mL of the stock ^159 GdCl3 solution, followed by through mixing to give an acidic solution (pH=2). The pH of the solution was then raised to 7.0 using 0.1N NaOH. The percent metal as a complex was then determined by passing a sample of the complex solution through a Sephadex™ G-50 column, eluting with 4:1 saline ([…]) and collecting 2×3 mL fractions. The amount of radioactivity in the combined elutions was then compared with that left on the resin (non-complexed metal is retained on the resin). The pH stability profile was generated by adjusting the pH of an aliquot of the complex solution using 1M NaOH or 1M HCl and determining the percent of the metal existing as a complex using the ion exchange method described above. The Sm results are known by expermintal comparison to be identical for complexation and biodistribution of the ligands of this invention.
Sprague Dawley rats were allowed to acclimate for five days then injected with 100 μL of the complex solution via a tail vein. The rats weighed between 150 and 250 g at the time of injection. […] The amount of radioactivity in each tissue was determined by counting in a NaI scintillation counter coupled to a multichannel analyzer. The counts were compared to the counts in 100 μL standards in order to determine the percentage of the dose in each tissue or organ.
The percent dose in blood was estimated assuming blood to be 6.5% of the total body weight. The percent dose in bone was estimated by multiplying the percent dose in the femur by 25. The percent dose in muscle was estimated assuming muscle to be 43% of the total body weight.
In addition to organ biodistribution, chelates of the compounds of Formula (I) were evaluated for efficiency of bone localization since phosphonates are known for their ability to bind to hydroxyapatite.

SMILES	Biodistribution: Brain [6] [% INJECTED DOSE]	Biodistribution: Heart [6] [% INJECTED DOSE]	Biodistribution: Kidney [6] [% INJECTED DOSE]	Biodistribution: Large Intestine [6] [% INJECTED DOSE]	Biodistribution: Liver [6] [% INJECTED DOSE]	Biodistribution: Lung [6] [% INJECTED DOSE]	Biodistribution: Small Intestine [6] [% INJECTED DOSE]	Biodistribution: Spleen [6] [% INJECTED DOSE]	Biodistribution: Stomach [6] [% INJECTED DOSE]	Biodistribution: Blood [6] [% INJECTED DOSE]	Biodistribution: Bone [6] [% INJECTED DOSE]	Biodistribution: Muscle [6] [% INJECTED DOSE]	Ratio Bone/Blood [6]	Ratio Bone/Liver [6]	Ratio Bone/Muscle [6]	Ratio Bone/Spleen [6]	also measured
O=C(O)CN1Cc2cccc(n2)CN(CC(=O)O)Cc2cccc(n2)C1 [BP2A, N,N'-diacetic acid-2,11-diaza[3.3]-(2,6)pyridinophane]																	bone uptake of complex [1]: displays bone uptake; percent metal as a complex ([2]; ligand:metal ratio of 4:1): 99%
CCOP(=O)(O)CN1Cc2cccc(n2)CN(CP(=O)(O)OCC)Cc2cccc(n2)C1 [BP2EP, N,N'-bis(methylenephosphonic acid ethyl ester)-2,11-diaza[3.3](2,6)pyridinophane]																	percent metal as a complex ([2]; ligand:metal ratio of 4:1): 98%
O=P(O)(O)CN1Cc2cccc(n2)CN(CP(=O)(O)O)Cc2cccc(n2)C1 [BP2P, N,N'-bis (methylenephosphonic acid) -2,11-diaza[3.3](2,6)pyridinophane]																	percent metal as a complex ([2]; ligand:metal ratio of 3:1): 95%
CNC[C@H](O)[C@@H](O)[C@H](O)[C@H](O)CO.CNC[C@H](O)[C@@H](O)[C@H](O)[C@H](O)CO.O=C([O-])CN(CCN(CC(=O)[O-])CC(=O)O)CCN(CC(=O)[O-])CC(=O)O.[Gd+3] [Magnevist, complex of gadolinium with diethylenetriaminepentaacetic acid]																	usefulness in the diagnosis of brain lesions [3]: extremely valuable in the diagnosis of brain lesions; distribution and elimination [4]: freely distribute in extracellular fluid followed by efficient elimination through the renal system
CC(O)CN1CCN(CC(=O)[O-])CCN(CC(=O)[O-])CCN(CC(=O)[O-])CC1.[Gd+3] (stereo not drawn) [Prohance, [1,4,7-tris(carboxymethyl)-10-(2-hydroxypropyl)-1,4,7,10-tetraazacyclododecanato]-gadolinium]																	side effects [5]: fewer side effects than Magnevist; distribution and elimination [4]: freely distribute in extracellular fluid followed by efficient elimination through the renal system
O=C(O)CN1Cc2cccc(n2)CN(CC(=O)O)Cc2cccc(n2)CN(CC(=O)O)Cc2cccc(n2)C1 [TP3A, N,N',N"-triacetic acid-2,11,20-diaza[3.3.3](2,6)pyridinophane]																	percent metal as a complex ([2]; ligand:metal ratio of 3:1): 98.6%
O=C([O-])CN1Cc2cccc(n2)CN(CC(=O)[O-])Cc2cccc(n2)C1.[153Sm+3] [^153 Sm-BP2A, ^153 Sm N,N'-diacetic acid-2,11-diaza[3.3](2,6)pyridinophane]	0.01	0.02	0.95	0.04	0.68	0.06	0.80	0.01	0.05	0.43	27.98	0.80	65	41	35	2,798	
CCOP(=O)([O-])CN1Cc2cccc(n2)CN(CP(=O)([O-])OCC)Cc2cccc(n2)C1.[153Sm+3] [^153 Sm-BP2EP, ^53 Sm N,N'-bis(methylenephosphonic acid ethyl ester)-2,11-diaza[3.3](2,6)pyridinophane]	0.01	0.04	0.74	0.25	5.97	0.19	0.33	0.32	0.36	0.45	39.82	1.21	88	7	33	124	
O=P([O-])([O-])CN1Cc2cccc(n2)CN(CP(=O)([O-])[O-])Cc2cccc(n2)C1.[153Sm+3] [^153 Sm-BP2P, ^153 Sm N,N'-bis(methylenephosphonic acid)-2,11-diaza[3.3](2,6)pyridinophane]	0.01	0.07	1.21	0.13	3.71	0.17	0.39	0.05	0.20	0.87	60.08	1.53	69	16	39	1,201	
O=C([O-])CN1Cc2cccc(n2)CN(CC(=O)[O-])Cc2cccc(n2)CN(CC(=O)[O-])Cc2cccc(n2)C1.[153Sm+3] [^153 Sm-TP3A, ^153 Sm N,N',N"-triacetic acid-2,11,20-diaza[3.3.3](2,6)pyridinophane]		0.016	0.639	0.156	0.570	0.047	1.426	0.068	0.036	0.437	1.495	0.833	3	3	2	22	
